Experimental data as given in patent US20180064808A1, “COMBINATION THERAPY OF BISPECIFIC ANTIBODIES SPECIFIC FOR FAP AND DR5 AND CHEMOTHERAPEUTIC AGENTS” (Hoffmann-La Roche Inc., priority 2014, published 2018).
Like-named read-outs stand apart in the source and are kept apart here.

Assays:
HT29 = assay: Combination screen CRC cell lines (CellTiter-Glo); assay type: cell-based; conditions: for IC50: 3 days; for % max. inhibition (mono): first figure of mono/combo; for Fold change IC50 (DR5 ab mono vs combo) / % max. inhibition (combo): n.s. = not significant; for % max. inhibition (combo): second figure of mono/combo
Experimental: (§1) A panel of CRC and PDAC cell lines was assessed and combination partners of potential clinical relevance for the respective tumor indications were used for evaluation of combination effects (CRC: irinotecan, oxaliplatin, 5-FU, MDM2 inhibitor (RG7388), Bcl-2 inhibitor (ABT199); PDAC: Abraxane, Paclitaxel, Gemcitabine, Doxorubicin, MDM2i (RG7388), Bc12i (ABT199), Bortezomib, Cyclopamine, PARP inhibitor (PJ34)).
(§2) Cells were seeded (numbers vary depending on the cell line) in black 96-well microplate with clear, flat bottom and incubated overnight at 37° C. and 5% CO2. After checking the adherence/confluence of cells, the medium was removed and 100 μl of fresh medium containing the corresponding compound was added to each well. A sequential dilution series (1:4) of 8 concentrations per compound (n=3) were used. Corresponding DMSO concentration and media alone were used as controls.
(§3) After incubation for 3 days at 37° C. and 5% CO2, 100 μl per well CellTiter-Glo reagent (Promega) was added to the plate. Luminescence was measured after 30 minutes agitation at room temperature. IC50-values were calculated with XL-Fit software. Each experiment with one compound was repeated at least twice.
(§4) Cells were seeded (numbers vary depending on the cell line) in black 96-well microplate with clear, flat bottom and incubated overnight at 37° C. and 5% CO2. After checking the adherence/confluence of cells, the medium was removed and 100 μl of fresh medium containing the corresponding compound or combination was added to each well.
(§5) A sequential 1:3 dilution series of 9 concentrations of Drozitumab/anti-human-Fc was done on a 96-well PP-V-bottom microplate (n=6). […] 25 μl/well of the Drozitumab/anti-human-Fc series were then transferred to the cells.
(§6) After incubation for 3 days at 37° C. and 5% CO2 100 μl per well CellTiter-Glo reagent (Promega) were given to the plates. Luminescence was measured after 30 minutes agitation at room temperature.
(§7) For each concentration of Drozitumab/anti-human-Fc and Drozitumab/anti-human-Fc+compound triplicates were done on the same plate and each experiment was repeated at least twice.

SW480 = assay: Combination screen CRC cell lines (CellTiter-Glo); assay type: cell-based; conditions: for % max. inhibition (mono): first figure of mono/combo; for Fold change IC50 (DR5 ab mono vs combo): n.s. = not significant; for % max. inhibition (combo): second figure of mono/combo
Experimental: as §1, §2, §3, §4, §5, §6, §7

HCT116 = assay: Combination screen CRC cell lines (CellTiter-Glo); assay type: cell-based, human; conditions: for % max. inhibition (mono): first figure of mono/combo; for % max. inhibition (combo): second figure of mono/combo; for IC50: 3 days
Experimental: as §1, §2, §3, §4, §5, §6, §7

Aspc1 = assay: Combination screen PDAC cell lines (CellTiter-Glo); assay type: cell-based; conditions: Aspc1; for % max. inhibition (mono): first figure of mono/combo; for Fold change IC50 (DR5 ab mono vs combo) / % max. inhibition (combo): n.s. = not significant; for % max. inhibition (combo): second figure of mono/combo
Experimental: as §1, §2, §3, §4, §5, §6, §7

Bxpc3 = assay: Combination screen PDAC cell lines (CellTiter-Glo); assay type: cell-based; conditions: Bxpc3; for Fold change IC50 (DR5 ab mono vs combo) / % max. inhibition (combo): n.s. = not significant; for % max. inhibition (combo): second figure of mono/combo; for IC50: agent alone, 3 days, read-out: IC50 monotherapy
Experimental: as §1, §2, §3, §4, §5, §6, §7

Capan2 = assay: Combination screen PDAC cell lines (CellTiter-Glo); assay type: cell-based; conditions: Capan2; for % max. inhibition (combo): second figure of mono/combo, n.s. = not significant
Experimental: as §1, §2, §3, §4, §5, §6, §7

Panc1 = assay: Combination screen PDAC cell lines (CellTiter-Glo); assay type: cell-based; conditions: Panc1; for Fold change IC50 (DR5 ab mono vs combo) / % max. inhibition (combo): n.s. = not significant; for % max. inhibition (combo): second figure of mono/combo; for IC50: 3 days
Experimental: as §1, §2, §3, §4, §5, §6, §7

[1] = clinical studies; cited from earlier work
[2] = DR5 ab + Fc titrated in combination with 1x IC50 of the named compound, read-out: IC50 combo
[3] = agent alone, read-out: IC50 monotherapy
[4] = agent alone, 3 days, read-out: IC50 monotherapy

Compound | % max. inhibition (mono) (HT29) | Fold change IC50 (DR5 ab mono vs combo) (HT29) | % max. inhibition (combo) (HT29) | % max. inhibition (mono) (SW480) | Fold change IC50 (DR5 ab mono vs combo) (SW480) | % max. inhibition (combo) (SW480) | % max. inhibition (mono) (HCT116) | % max. inhibition (combo) (HCT116) | IC50 (HT29; [3]) | IC50 (HCT116; [3]) | % max. inhibition (mono) (Aspc1) | Fold change IC50 (DR5 ab mono vs combo) (Aspc1) | % max. inhibition (combo) (Aspc1) | Fold change IC50 (DR5 ab mono vs combo) (Bxpc3) | % max. inhibition (combo) (Bxpc3) | % max. inhibition (combo) (Capan2) | Fold change IC50 (DR5 ab mono vs combo) (Panc1) | % max. inhibition (combo) (Panc1) | also measured
CCc1c2c(nc3ccc(OC(=O)N4CCC(N5CCCCC5)CC4)cc13)-c1cc3c(c(=O)n1C2)COC(=O)[C@]3(O)CC [Irinotecan, (S)-4,11-diethyl-3,4,12,14-tetrahydro-4-hydroxy-3,14-dioxo1H-pyrano[3′,4′:6,7]-indolizino[1,2-b]quinolin-9-yl-[1,4′bipiperidine]-1′-carboxylate] | 40% | 83 | 100% | 60% | n.s. | 95% | 60% | 95% | – | – | – | – | – | – | – | – | – | – | IC50 (HT29; Homo sapiens, HT-29, 72 h, agent alone, read-out: IC50 monotherapy): 9000 nM
O=C1[O][Pt]2([NH][C@@H]3CCCC[C@H]3[NH]2)[O]C1=O [Oxaliplatin, [(1R,2R)-cyclohexane-1,2-diamine](ethanedioato-O,O′)platinum(II)] | 30% | 13 | 90% | 60% | n.s. | 80% | 20% | 90% | 5000 nM | 5000 nM | – | – | – | – | – | – | – | – | IC50 (HT29; [2]): 0.2 nM; Fold change IC50 (DR5 ab mono vs combo) (HCT116): 4; IC50 (HCT116; [2]): 0.04 nM
CN(C)CC(=O)Nc1ccc2[nH]c(=O)c3ccccc3c2c1.Cl [PARPi (PJ34)] | – | – | – | – | – | – | – | – | – | – | 10% | 17 | 70% | 10 | n.s. | n.s. | n.s. | n.s. | –
CC(=O)O[C@H]1C(=O)[C@@]2(C)[C@H]([C@H](OC(=O)c3ccccc3)[C@]3(O)C[C@H](OC(=O)[C@H](O)[C@@H](NC(=O)c4ccccc4)c4ccccc4)C(C)=C1C3(C)C)[C@]1(OC(C)=O)CO[C@@H]1C[C@@H]2O [Paclitaxel, 5β,20-Epoxy-1,2α,4,7β,10β,13α-hexahydroxytax-11-en-9-one 4,10-diacetate 2-benzoate 13-ester with (2R,3S)-N-benzoyl-3-phenylisoserine] | – | – | – | – | – | – | – | – | – | – | 30% | 31 | 75% | 1 | 100% | 80% | 8733 | 70% | % max. inhibition (mono) (Bxpc3; first figure of mono/combo): 80%; IC50 (Bxpc3; Homo sapiens, BXPC-3, 72 h): 250 nM; % max. inhibition (mono) (Capan2; first figure of mono/combo): 50%; IC50 (Panc1; Homo sapiens, PANC-1, 72 h, DR5 ab + Fc titrated in combination with 1x IC50 of the named compound, read-out: IC50 Combo): 0.03 nM; IC50 (Panc1; Homo sapiens, PANC-1, 72 h, agent alone, read-out: IC50 monotherapy): 15 nM; % max. inhibition (mono) (Panc1; first figure of mono/combo): 50%
DR5 ab + Fc: DR5 antibody (drozitumab) + crosslinking via an anti-Fc antibody, surrogate for FAP crosslinking | – | – | – | – | – | – | – | – | 2.5 nM | 0.15 nM | – | – | – | – | – | – | – | – | IC50 (Aspc1; [4]): 5 nM; IC50 (Bxpc3): 3 nM; IC50 (Panc1; [3]): 262 nM; IC50 (SW480; [4]): 140 nM
Tigatuzumab: humanized DR5 agonistic antibody | – | – | – | – | – | – | – | – | – | – | – | – | – | – | – | – | – | – | maximally tolerated dose (MTD) [1]: up to 8 mg/kg
